Experimental data reported in ChEMBL document CHEMBL1155728, “New steroid glycosides from the starfish Asterias rathbuni” (J Nat Prod, 2001).

What was measured:
Set-up in all cases: species or system Egg
[1] = Inhibition of cell division of fertilized eggs of Strongylocentrotus intermedius at 2.9 X 10 ' -5 M; details: fertilized sea urchin eggs
[2] = Inhibition of cell division of fertilized eggs of Strongylocentrotus intermedius
[3] = Inhibition of cell division of fertilized eggs of Strongylocentrotus intermedius at 7 X 10 ' -5 M; details: fertilized sea urchin eggs

| IC100 [2] | SMILES | other results |
| --- | --- | --- |
|  | CC(C)=CC(=O)C[C@@H](C)[C@H]1CC[C@H]2[C@@H]3C[C@H](O)[C@H]4C[C@@H](OS(=O)(=O)O)CC[C@]4(C)C3=CC[C@]12C | inhibition at 29 µM [1]: 100% |
| 1.9 ×10⁻⁴ M | CC(C)[C@H](CC[C@@H](C)[C@H]1C[C@H](OS(=O)(=O)[O-])[C@H]2[C@@H]3C[C@H](O)[C@H]4C[C@@H](O)CC[C@]4(C)[C@H]3CC[C@@]21C)O[C@@H]1OC[C@@H](O)[C@H](O)[C@H]1O.[Na+] [AMURENSOSIDE A] |  |
|  | CC(C)[C@H](CC[C@@H](C)[C@H]1C[C@@H](O)[C@H]2[C@@H]3C[C@H](O)[C@H]4C[C@@H](O)CC[C@]4(C)[C@H]3CC[C@@]21C)O[C@@H]1OC[C@@H](O)[C@H](O)[C@H]1O [RATHBUNIOSIDE R1] | inhibition at 70 µM [3]: 100% |
| 1.7 ×10⁻⁴ M | CC(C)[C@H](CC[C@@H](C)[C@H]1C[C@H](O)[C@H]2[C@@H]3C[C@@H](O)[C@@]4(O)C[C@@H](O)CC[C@]4(C)[C@H]3CC[C@@]21C)O[C@@H]1OC[C@@H](O)[C@H](O)[C@H]1O [RATHBUNIOSIDE R2] |  |
